Assay results from patent US20240199649A1 (Biosplice Therapeutics, Inc., priority 2022, published 2024).

Molecular target: recombinant DYRK1A kinase (Homo sapiens (Human), UniProt Q13627)
Test: DYRK1A kinase assay (Ser/Thr 18 peptide Z-lyte FRET assay)
Format: biochemical
Conditions: DYRK1A 0.25 μg/mL, ATP 15 μM, Ser/Thr peptide 18 4 μM; one hour at room temperature; 11-point dose-response, duplicate
Outline: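 Z-lyte FRET assay on Ser/Thr 18 peptide, kinase activity read as coumarin/fluorescein emission ratio; compounds incubated 1 h at room temperature, then development reagent 1 h, in duplicate. Phosphorylated and unphosphorylated peptide served as controls; IC50 by non-linear regression of dose-response curves.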

| SMILES | IC50 |
| --- | --- |
| CNc1nc(N[C@H]2CCN(C3COC3)C[C@H]2F)nn2ccc(-c3ccc4nnn(CC(F)F)c4n3)c12 [Compound 474, 5-(3-(2,2-Difluoroethyl)-3H-[1,2,3]triazolo[4,5-b]pyridin-5-yl)-N^2-((3R,4S)-3-fluoro-1-(oxetan-3-yl)piperidin-4-yl)-N^4-methylpyrrolo[2,1-f][1,2,4]triazine-2,4-diamine] | 1.3 nM |
| CNc1nc(N[C@@H]2CCN(C)CC2(F)F)nn2ccc(-c3ccc4nnn(CC(F)F)c4n3)c12 [Compound 479, (R)—N^2-(3,3-Difluoro-1-methylpiperidin-4-yl)-5-(3-(2,2-difluoroethyl)-3H-[1,2,3]triazolo[4,5-b]pyridin-5-yl)-N4-methylpyrrolo[2,1-f][1,2,4]triazine-2,4-diamine] | 0.6 nM |
| CNc1nc(N[C@@H]2CCN(C3COC3)CC2(F)F)nn2ccc(-c3ccc4nnn(CC(F)F)c4n3)c12 [Compound 480, (R)—N^2-(3,3-Difluoro-1-(oxetan-3-yl)piperidin-4-yl)-5-(3-(2,2-difluoroethyl)-3H-[1,2,3]triazolo[4,5-b]pyridin-5-yl)-N^4-methylpyrrolo[2,1-f][1,2,4]triazine-2,4-diamine] | 1.3 nM |
| CCNc1nc(N[C@@H]2CCNCC2(F)F)nn2ccc(-c3ccc4nc(C)n(CC(F)F)c4n3)c12 [Compound 482, (R)-5-(3-(2,2-Difluoroethyl)-2-methyl-3H-imidazo[4,5-b]pyridin-5-yl)-N^2-(3,3-difluoropiperidin-4-yl)-N^4-ethylpyrrolo[2,1-f][1,2,4]triazine-2,4-diamine] | 3.1 nM |
| CCNc1nc(N[C@@H]2CCN(C)CC2(F)F)nn2ccc(-c3ccc4nc(C)n(CC(F)F)c4n3)c12 [Compound 483, (R)—N^2-(3,3-difluoro-1-methylpiperidin-4-yl)-5-(3-(2,2-difluoroethyl)-2-methyl-3H-imidazo[4,5-b]pyridin-5-yl)-N^4-ethylpyrrolo[2,1-f][1,2,4]triazine-2,4-diamine] | 3.6 nM |
| Cc1nc2ccc(-c3ccn4nc(N[C@@H]5CCNCC5(F)F)nc(NC(C)C)c34)nc2n1CC(F)F [Compound 484, (R)-5-(3-(2,2-Difluoroethyl)-2-methyl-3H-imidazo[4,5-b]pyridin-5-yl)-N^2-(3,3-difluoropiperidin-4-yl)-N^4-isopropylpyrrolo[2,1-f][1,2,4]triazine-2,4-diamine] | 6.4 nM |
| Cc1nc2ccc(-c3ccn4nc(N[C@@H]5CCN(C)CC5(F)F)nc(NC(C)C)c34)nc2n1CC(F)F [Compound 485, (R)—N^2-(3,3-Difluoro-1-methylpiperidin-4-yl)-5-(3-(2,2-difluoroethyl)-2-methyl-3H-imidazo[4,5-b]pyridin-5-yl)-N^4-isopropylpyrrolo[2,1-f][1,2,4]triazine-2,4-diamine] | 7.3 nM |
| Cc1nc2ccc(-c3ccn4nc(N[C@@H]5CCNCC5(F)F)nc(NC5COC5)c34)nc2n1CC(F)F [Compound 486, (R)-5-(3-(2,2-Difluoroethyl)-2-methyl-3H-imidazo[4,5-b]pyridin-5-yl)-N^2-(3,3-difluoropiperidin-4-yl)-N^4-(oxetan-3-yl)pyrrolo[2,1-f][1,2,4]triazine-2,4-diamine] | 7830 nM |
| Cc1nc2ccc(-c3ccn4nc(N[C@@H]5CCN(C)CC5(F)F)nc(NC5COC5)c34)nc2n1CC(F)F [Compound 487, (R)—N2-(3,3-Difluoro-1-methylpiperidin-4-yl)-5-(3-(2,2-difluoroethyl)-2-methyl-3H-imidazo[4,5-b]pyridin-5-yl)-N4-(oxetan-3-yl)pyrrolo[2,1-f][1,2,4]triazine-2,4-diamine] | 3.8 nM |
| Cc1nc2ccc(-c3ccn4nc(N[C@H]5CC[C@](C)(O)CC5)nc(N)c34)nc2n1CC(F)F [Compound 692, (1r,4r)-4-((4-Amino-5-(3-(2,2-difluoroethyl)-2-methyl-3H-imidazo[4,5-b]pyridin-5-yl)pyrrolo[2,1-f][1,2,4]triazin-2-yl)amino)-1-methylcyclohexan-1-ol] | 0.9 nM |
| CC(=O)N1C[C@H](F)[C@H](Nc2nc(N)c3c(-c4ccc5nc(C)n(CC(F)F)c5n4)ccn3n2)C1 [Compound 700, 1-((3R,4S)-3-((4-Amino-5-(3-(2,2-difluoroethyl)-2-methyl-3H-imidazo[4,5-b]pyridin-5-yl)pyrrolo[2,1-f][1,2,4]triazin-2-yl)amino)-4-fluoropyrrolidin-1-yl)ethan-1-one] | 1 nM |
| Cc1nc2ccc(-c3ccn4nc(N[C@@H]5CN(C6COC6)C[C@@H]5F)nc(N)c34)nc2n1CC(F)F [Compound 701, 5-(3-(2,2-Difluoroethyl)-2-methyl-3H-imidazo[4,5-b]pyridin-5-yl)-N^2-((3R,4S)-4-fluoro-1-(oxetan-3-yl)pyrrolidin-3-yl)pyrrolo[2,1-f][1,2,4]triazine-2,4-diamine] | 1 nM |
| CC(=O)N1CC[C@H](Nc2nc(N)c3c(-c4ccc5nc(C)n(CC(F)F)c5n4)ccn3n2)[C@H](F)C1 [Compound 715, 1-((3R,4S)-4-((4-Amino-5-(3-(2,2-difluoroethyl)-2-methyl-3H-imidazo[4,5-b]pyridin-5-yl)pyrrolo[2,1-f][1,2,4]triazin-2-yl)amino)-3-fluoropiperidin-1-yl)ethan-1-one] | 0.4 nM |
| CC(=O)N1CC[C@@H](Nc2nc(N)c3c(-c4ccc5nc(C)n(CC(F)F)c5n4)ccn3n2)C(F)(F)C1 [Compound 729, (R)-1-(4-((4-Amino-5-(3-(2,2-difluoroethyl)-2-methyl-3H-imidazo[4,5-b]pyridin-5-yl)pyrrolo[2,1-f][1,2,4]triazin-2-yl)amino)-3,3-difluoropiperidin-1-yl)ethan-1-one] | 0.4 nM |
| Cc1nc2ccc(-c3ccn4nc(N[C@@H]5CCN(C6COC6)CC5(F)F)nc(N)c34)nc2n1CC(F)F [Compound 730, (R)—N^2-(3,3-Difluoro-1-(oxetan-3-yl)piperidin-4-yl)-5-(3-(2,2-difluoroethyl)-2-methyl-3H-imidazo[4,5-b]pyridin-5-yl)pyrrolo[2,1-f][1,2,4]triazine-2,4-diamine] | 2.1 nM |
| Cc1nc2ccc(-c3ccn4nc(N[C@H]5CC[C@](C)(O)CC5)nc(N)c34)nc2n1CC(F)(F)F [Compound 754, (1r,4r)-4-((4-Amino-5-(2-methyl-3-(2,2,2-trifluoroethyl)-3H-imidazo[4,5-b]pyridin-5-yl)pyrrolo[2,1-f][1,2,4]triazin-2-yl)amino)-1-methylcyclohexan-1-ol] | 0.5 nM |
| CC(=O)N1C[C@H](F)[C@H](Nc2nc(N)c3c(-c4ccc5nc(C)n(CC(F)(F)F)c5n4)ccn3n2)C1 [Compound 762, 1-((3R,4S)-3-((4-Amino-5-(2-methyl-3-(2,2,2-trifluoroethyl)-3H-imidazo[4,5-b]pyridin-5-yl)pyrrolo[2,1-f][1,2,4]triazin-2-yl)amino)-4-fluoropyrrolidin-1-yl)ethan-1-one] | 1.5 nM |
| Cc1nc2ccc(-c3ccn4nc(N[C@@H]5CN(C6COC6)C[C@@H]5F)nc(N)c34)nc2n1CC(F)(F)F [Compound 763, N^2-((3R,4S)-4-Fluoro-1-(oxetan-3-yl)pyrrolidin-3-yl)-5-(2-methyl-3-(2,2,2-trifluoroethyl)-3H-imidazo[4,5-b]pyridin-5-yl)pyrrolo[2,1-f][1,2,4]triazine-2,4-diamine] | 1.4 nM |
| CC(=O)N1CC[C@H](Nc2nc(N)c3c(-c4ccc5nc(C)n(CC(F)(F)F)c5n4)ccn3n2)[C@H](F)C1 [Compound 777, 1-((3R,4S)-4-((4-Amino-5-(2-methyl-3-(2,2,2-trifluoroethyl)-3H-imidazo[4,5-b]pyridin-5-yl)pyrrolo[2,1-f][1,2,4]triazin-2-yl)amino)-3-fluoropiperidin-1-yl)ethan-1-one] | 1.2 nM |
| Cc1nc2ccc(-c3ccn4nc(N[C@H]5CCN(C6COC6)C[C@H]5F)nc(N)c34)nc2n1CC(F)(F)F [Compound 780, N^2-((3R,4S)-3-Fluoro-1-(oxetan-3-yl)piperidin-4-yl)-5-(2-methyl-3-(2,2,2-trifluoroethyl)-3H-imidazo[4,5-b]pyridin-5-yl)pyrrolo[2,1-f][1,2,4]triazine-2,4-diamine] | 1.2 nM |
| Cc1nc2ccc(-c3ccn4nc(N[C@@H]5CCN(C6COC6)CC5(F)F)nc(N)c34)nc2n1CC(F)(F)F [Compound 792, (R)—N^2-(3,3-Difluoro-1-(oxetan-3-yl)piperidin-4-yl)-5-(2-methyl-3-(2,2,2-trifluoroethyl)-3H-imidazo[4,5-b]pyridin-5-yl)pyrrolo[2,1-f][1,2,4]triazine-2,4-diamine] | 4.8 nM |
| C[C@]1(O)CC[C@H](Nc2nc(N)c3c(-c4ccc5nnn(CC(F)F)c5n4)ccn3n2)CC1 [Compound 816, (1r,4r)-4-((4-Amino-5-(3-(2,2-difluoroethyl)-3H-[1,2,3]triazolo[4,5-b]pyridin-5-yl)pyrrolo[2,1-f][1,2,4]triazin-2-yl)amino)-1-methylcyclohexan-1-ol] | 1.3 nM |
| Nc1nc(N[C@H]2CCN(C3COC3)C[C@H]2F)nn2ccc(-c3ccc4nnn(CC(F)F)c4n3)c12 [Compound 842, 5-(3-(2,2-Difluoroethyl)-3H-[1,2,3]triazolo[4,5-b]pyridin-5-yl)-N^2-((3R,4S)-3-fluoro-1-(oxetan-3-yl)piperidin-4-yl)pyrrolo[2,1-f][1,2,4]triazine-2,4-diamine] | 1.5 nM |
| CN1CC[C@@H](Nc2nc(N)c3c(-c4ccc5nnn(CC(F)F)c5n4)ccn3n2)C(F)(F)C1 [Compound 850, (R)—N^2-(3,3-Difluoro-1-methylpiperidin-4-yl)-5-(3-(2,2-difluoroethyl)-3H-[1,2,3]triazolo[4,5-b]pyridin-5-yl)pyrrolo[2,1-f][1,2,4]triazine-2,4-diamine] | 0.6 nM |
| CC(=O)N1CC[C@@H](Nc2nc(N)c3c(-c4ccc5nnn(CC(F)F)c5n4)ccn3n2)C(F)(F)C1 [Compound 853, (R)-1-(4-((4-Amino-5-(3-(2,2-difluoroethyl)-3H-[1,2,3]triazolo[4,5-b]pyridin-5-yl)pyrrolo[2,1-f][1,2,4]triazin-2-yl)amino)-3,3-difluoropiperidin-1-yl)ethan-1-one] | 1.5 nM |
